# Source: PMC7041945, “Misfolded proteins bind and activate death receptor 5 to trigger apoptosis during unresolved endoplasmic reticulum stress” (eLife, 2020)
# Key:
# [1] = test system: CHOP, BiP, and DR5 mRNA in HCT116 cells; assay: qPCR of UPR target transcripts (CHOP, BiP, DR5); type: cell-based, Homo sapiens
# Procedure: Cells were grown in 6-well plates and harvested with 0.5 ml of TRIzol reagent (Life Technologies) per manufacturer’s protocol to extract RNA. For cDNA synthesis, 500 ng of total RNA was reverse transcribed with 2 μl of the SuperScript VILO master mix (Life Technologies # 11755050) in a total reaction volume of 10 μl following the manufacturer’s protocol for reaction temperature and duration. The reverse transcription product was diluted to 200 μl with 10 mM Tris-HCl pH 8.2 and used at 1:100 dilution for subsequent RT-PCR reactions.
# PCR samples were prepared as described by manufacturer’s protocols from iQ SYBR Green Supermix (BioRad #17088800).
# For each experiment, qRT-PCR reactions were set up in triplicate and run using a CFX96 Real Time System (Bio-Rad). Quantitation cycles were determined with CFX Manager 3.0 software (Bio-Rad) and then normalized to GAPDH as an internal control.
# DR5 = assay: GFP immunoprecipitation: DR5 (FADD, caspase 8) recovered with GFP-tagged protein, Western blot; type: cell-based, Homo sapiens; conditions: for fraction IP'ed: beads/input
# Procedure: 15 cm dishes were seeded with 4 million HCT116 cells and allowed to recover for 18 hr prior to transfection. Samples were then transfected for 24 hr with the GFP-tagged ER trafficked protein, cytosolic GFP, or empty vector. To harvest apoptotic and living cells for each sample, all media and washes were collected. Cells were scraped in 2 ml of cold PBS and combined with the media and washes. Samples were centrifuged to pellet cells, washed with 1 ml cold PBS, and flash frozen in liquid N2 prior to lysis.
# The cell pellets were resuspended in 750 μl of 30 mM HEPES pH 7.2, 150 mM NaCl, 1% Triton X-100 with 1x Roche protease inhibitor cocktail (if used subsequently for caspase glo 8 assay) or with 5x Roche protease inhibitor cocktail (if used for immunoblotting). The cells were lysed by mechanical shearing through a 25G needle for 13–15 plunges followed by incubation on ice for 30 min. The lysate was centrifuged at 2000xg for 5 min to remove debris and then incubated with 30 μl of GFP-Trap magnetic agarose beads (Chromotek gtma-20) for 4 hr at 4°C. The beads were then washed with 750 μl of lysis buffer for 10 min at 4°C for three rounds.
# For Western blots, samples were eluted by adding 35 μl of non-reducing SDS gel loading buffer (50 mM Tris-HCl (pH 6.8), 2% SDS, 0.1% bromophenol blue, 10% glycerol) and incubated for 10 min at 70°C. The beads were then magnetically removed from the eluted sample before adding DTT to a final concentration of 25 mM. The entire sample was loaded onto the gel and immunoblotted for DR5, caspase 8, and GFP, in that order.
# [2] = 24 hr, Rep 2, relative to empty traffo, mean of 3 replicates
# [3] = 24 hr, Rep 2, relative to empty traffo, replicate 1
# [4] = 24 hr, Rep 2, relative to empty traffo, replicate 2
# [5] = 24 hr, Rep 2, relative to empty traffo, replicate 3
# [6] = HCT116, 100 nM for 24 hours, avg., norm to GAPDH
# [7] = HCT116, 100 nM for 24 hours, replicate 1
# [8] = HCT116, 100 nM for 24 hours, replicate 2
# [9] = HCT116, 100 nM for 24 hours, replicate 3
# [10] = HCT116, 100 nM for 24 hours, vs GAPDH, replicate 1
# [11] = HCT116, 100 nM for 24 hours, vs GAPDH, replicate 2
# [12] = HCT116, 100 nM for 24 hours, vs GAPDH, replicate 3
# [13] = HCT116, 100 nM Tg for 24 hours, mean of 3 replicates
# [14] = HCT116, 100 nM Tg for 24 hours, replicate 1
# [15] = HCT116, 100 nM Tg for 24 hours, replicate 2
# [16] = HCT116, 100 nM Tg for 24 hours, replicate 3
# [17] = qPCR Rep 2, WT MPZ GFP 1000 ng, or empty traffo + Tg, mean of 3
# [18] = qPCR Rep 2, WT MPZ GFP 1000 ng, or empty traffo + Tg, replicate 1
# [19] = qPCR Rep 2, WT MPZ GFP 1000 ng, or empty traffo + Tg, replicate 2
# [20] = qPCR Rep 2, WT MPZ GFP 1000 ng, or empty traffo + Tg, replicate 3
# [21] = qPCR Rep 2, WT MPZ GFP 1000 ng, or empty traffo + Tg, vs avg GAPDH, replicate 1
# [22] = qPCR Rep 2, WT MPZ GFP 1000 ng, or empty traffo + Tg, vs avg GAPDH, replicate 2
# [23] = qPCR Rep 2, WT MPZ GFP 1000 ng, or empty traffo + Tg, vs avg GAPDH, replicate 3
# [24] = GFP IP, HCT116, average of Rep 1 and Rep 2, SEM in separate column
# [25] = GFP IP, HCT116, band intensity, Rep 1
compound,measurement,setting,value
"C/C=C(/C)C(=O)O[C@H]1C(C)=C2[C@H]([C@@H]1OC(=O)CCCCCCC)[C@@](C)(OC(C)=O)C[C@H](OC(=O)CCC)[C@@]1(O)[C@H]2OC(=O)[C@@]1(C)O [thapsigargin, reference compound]",avg. fold induction CHOP,[1]; [2],2.825
same,avg. fold induction DR5 total,[1]; [2],2.175
same,fold induction CHOP,[1]; [3],2.975
same,fold induction DR5 total,[1]; [3],2.222
same,fold induction CHOP,[1]; [4],2.927
same,fold induction DR5 total,[1]; [4],2.286
same,fold induction CHOP,[1]; [5],2.573
same,fold induction DR5 total,[1]; [5],2.0182
same,2^-(deltaCq) CHOP,"[1]; 24 hr, Rep 2, replicate 1",0.03423
same,2^-(deltaCq) DR5 total,"[1]; 24 hr, Rep 2, replicate 1",0.06479
same,Cq CHOP,"[1]; 24 hr, Rep 2, replicate 1",23.6206
same,Cq DR5 total,"[1]; 24 hr, Rep 2, replicate 1",22.7
same,"Cq(sample) - avg Cq(GAPDH), CHOP","[1]; 24 hr, Rep 2, replicate 1",4.869
same,"Cq(sample) - avg Cq(GAPDH), DR5 total","[1]; 24 hr, Rep 2, replicate 1",3.948
same,2^-(deltaCq) CHOP,"[1]; 24 hr, Rep 2, replicate 2",0.03367
same,2^-(deltaCq) DR5 total,"[1]; 24 hr, Rep 2, replicate 2",0.06665
same,Cq CHOP,"[1]; 24 hr, Rep 2, replicate 2",23.6444
same,Cq DR5 total,"[1]; 24 hr, Rep 2, replicate 2",22.6592
same,"Cq(sample) - avg Cq(GAPDH), CHOP","[1]; 24 hr, Rep 2, replicate 2",4.892
same,"Cq(sample) - avg Cq(GAPDH), DR5 total","[1]; 24 hr, Rep 2, replicate 2",3.9072
same,2^-(deltaCq) CHOP,"[1]; 24 hr, Rep 2, replicate 3",0.0296
same,2^-(deltaCq) DR5 total,"[1]; 24 hr, Rep 2, replicate 3",0.05885
same,Cq CHOP,"[1]; 24 hr, Rep 2, replicate 3",23.8304
same,Cq DR5 total,"[1]; 24 hr, Rep 2, replicate 3",22.839
same,"Cq(sample) - avg Cq(GAPDH), CHOP","[1]; 24 hr, Rep 2, replicate 3",5.078
same,"Cq(sample) - avg Cq(GAPDH), DR5 total","[1]; 24 hr, Rep 2, replicate 3",4.087
same,"avg. fold induction relative to empty traffo, BiP",[1]; [6],12.0843 fold
same,"avg. fold induction relative to empty traffo, CHOP",[1]; [6],7.5114 fold
same,"avg. fold induction relative to empty traffo, DR5 total",[1]; [6],5.041 fold
same,"fold induction relative to empty traffo, BiP",[1]; [7],11.9233 fold
same,"fold induction relative to empty traffo, CHOP",[1]; [7],7.102 fold
same,"fold induction relative to empty traffo, DR5 total",[1]; [7],5.4959 fold
same,"fold induction relative to empty traffo, BiP",[1]; [8],12.5755 fold
same,"fold induction relative to empty traffo, CHOP",[1]; [8],7.658 fold
same,"fold induction relative to empty traffo, DR5 total",[1]; [8],4.966 fold
same,"fold induction relative to empty traffo, BiP",[1]; [9],11.754 fold
same,"fold induction relative to empty traffo, CHOP",[1]; [9],7.775 fold
same,"fold induction relative to empty traffo, DR5 total",[1]; [9],4.661 fold
same,2^-(deltaCq) BiP,[1]; [10],1.038
same,2^-(deltaCq) CHOP,[1]; [10],0.07495
same,2^-(deltaCq) DR5 total,[1]; [10],0.08912
same,2^-(deltaCq) BiP,[1]; [11],1.095
same,2^-(deltaCq) CHOP,[1]; [11],0.08082
same,2^-(deltaCq) DR5 total,[1]; [11],0.08052
same,2^-(deltaCq) BiP,[1]; [12],1.023
same,2^-(deltaCq) CHOP,[1]; [12],0.08206
same,2^-(deltaCq) DR5 total,[1]; [12],0.07558
same,GAPDH avg. fold induction relative to empty traffo,[1]; [13],1.006
same,GFP avg. fold induction relative to empty traffo,[1]; [13],0.1103
same,ERO1alpha (386+387) avg. fold induction relative to empty traffo,"[1]; HCT116, 100 nM Tg for 24 hours, melt curves for these primers showed two peaks, mean of 3 replicates",0.8588
same,ERO1alpha (386+387) fold induction relative to empty traffo,"[1]; HCT116, 100 nM Tg for 24 hours, melt curves for these primers showed two peaks, replicate 1",0.8482
same,ERO1alpha (386+387) fold induction relative to empty traffo,"[1]; HCT116, 100 nM Tg for 24 hours, melt curves for these primers showed two peaks, replicate 2",0.8572
same,ERO1alpha (386+387) fold induction relative to empty traffo,"[1]; HCT116, 100 nM Tg for 24 hours, melt curves for these primers showed two peaks, replicate 3",0.8711
same,GADD34 (388+389) fold induction relative to empty traffo,[1]; [14],11.4671
same,GAPDH fold induction relative to empty traffo,[1]; [14],1.083
same,GFP fold induction relative to empty traffo,[1]; [14],0.1161
same,GADD34 (388+389) fold induction relative to empty traffo,[1]; [15],11.4954
same,GAPDH fold induction relative to empty traffo,[1]; [15],1.089
same,GFP fold induction relative to empty traffo,[1]; [15],0.1176
same,GADD34 (388+389) fold induction relative to empty traffo,[1]; [16],10.9924
same,GAPDH fold induction relative to empty traffo,[1]; [16],0.847
same,GFP fold induction relative to empty traffo,[1]; [16],0.09722
same,"avg. fold induction relative to WT MPZ DMSO, BiP",[1]; [17],6.727 fold
same,"avg. fold induction relative to WT MPZ DMSO, CHOP",[1]; [17],9.899 fold
same,"avg. fold induction relative to WT MPZ DMSO, DR5 total",[1]; [17],3.489 fold
same,"fold induction relative to WT MPZ DMSO, BiP",[1]; [18],6.3 fold
same,"fold induction relative to WT MPZ DMSO, CHOP",[1]; [18],10.9106 fold
same,"fold induction relative to WT MPZ DMSO, DR5 total",[1]; [18],3.205 fold
same,"fold induction relative to WT MPZ DMSO, BiP",[1]; [19],6.984 fold
same,"fold induction relative to WT MPZ DMSO, CHOP",[1]; [19],9.299 fold
same,"fold induction relative to WT MPZ DMSO, DR5 total",[1]; [19],3.841 fold
same,"fold induction relative to WT MPZ DMSO, BiP",[1]; [20],6.897 fold
same,"fold induction relative to WT MPZ DMSO, CHOP",[1]; [20],9.4871 fold
same,"fold induction relative to WT MPZ DMSO, DR5 total",[1]; [20],3.4208 fold
same,2^-(deltaCq) BiP,[1]; [21],1.043
same,2^-(deltaCq) CHOP,[1]; [21],0.04115
same,2^-(deltaCq) DR5 total,[1]; [21],0.04765
same,2^-(deltaCq) BiP,[1]; [22],1.156
same,2^-(deltaCq) CHOP,[1]; [22],0.03507
same,2^-(deltaCq) DR5 total,[1]; [22],0.05711
same,2^-(deltaCq) BiP,[1]; [23],1.142
same,2^-(deltaCq) CHOP,[1]; [23],0.03578
same,2^-(deltaCq) DR5 total,[1]; [23],0.05086
"FTWRYQPEGGRDAISIFHYA [MPZ-ecto peptide-eGFP, expressed construct: MPZ ectodomain replaced by the MPZ-ecto peptide, GFP-tagged]","% IP'ed, average",DR5; [24],7.7348%
same,"fraction IP'ed, average",DR5; [24],0.07735
same,input (*dilution factor),"DR5; GFP IP, HCT116, band intensity, background subtracted, divided by dilution factor 0.1, Rep 2",64608140
same,beads (*dilution factor),"DR5; GFP IP, HCT116, band intensity, background subtracted, divided by dilution factor 0.25, Rep 2",5226200
same,beads (*diluton factor),DR5; [25],10106176
same,input (*dilution factor),DR5; [25],136930440
same,fraction IP'ed,"DR5; GFP IP, HCT116, Rep 1",0.07381
same,fraction IP'ed,"DR5; GFP IP, HCT116, Rep 2",0.08089
same,Mean ± SEM of fraction IP'ed,"DR5; GFP IP, HCT116, n=2, from unpaired t test sheet","0.07735 ± 0.003543, n=2"
same,DR5 complex proteins in GFP immunoprecipitates,"DR5; HCT116, 24 hr post-transfection",enriched for DR5 relative to the Glu-containing mutant peptides
same,DR5 beads (*diluton factor),"DR5; Rep 1, DR5 blot densitometry of beads (GFP IP), background subtracted, adjusted for dilution factor 0.25",10106176
same,DR5 input (*dilution factor),"DR5; Rep 1, DR5 blot densitometry of input, background subtracted, adjusted for dilution factor 0.1",136930440
same,DR5 fraction IP'ed,"DR5; Rep 1, GFP IP, beads over input",0.07381
